Test [1] can be described thus: MIC by broth dilution assay. Particulars: Table 6d, 2 ×10^5 organisms/mL; for MIC: 144 h, no sorbitol. The class given is cell-based. The procedure: Minimal inhibitory concentrations (MICs) were determined by a broth dilution assay described by Frost, D., Brandt, K., Cugier, D., and Goldman, R. in J. Antibiotics 48: 306-310 (1995) which is incorporated herein by reference. The final concentration of cells was 2 ×10^5 organisms/mL.
In general terms: In broth dilution the organism is exposed to a series of concentrations in liquid medium.

The test system of test [2] is Candida albicans ATCC 623. Put plainly: MIC by agar dilution method. Particulars: ATCC623, Candida albicans ATCC 623, agar dilution, 32° C., 20 hours, read-out: MIC. The class given is cell-based. In a few lines: (§1)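 Compounds serially diluted in MeOH were mixed into molten Sabouraud dextrose agar. Inocula came from 18 h cultures at 32° C suspended in phosphate buffered saline, adjusted to 10^4 cells. Plates were incubated at 32° C and read after 20 hours.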

The subject of test [3] is Candida albicans ATCC 102. Put plainly: MIC by agar dilution method. Format: cell-based. The settings on record: ATCC102, 20 h. In a few lines:
(§2)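 MIC is the endpoint read after 20 hours at 32° C on Sabouraud dextrose agar containing MeOH-diluted test compound. Each plate received an inoculum of 10^4 cells, prepared from cultures grown 18 hours at 32° C and suspended in phosphate buffered saline.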
In general terms: Agar dilution tests growth on a series of plates holding different concentrations.

Test [4] relates to Candida albicans CCH 442. Description: MIC by agar dilution method. The class given is cell-based. Particulars: CCH442, agar dilution. In a few lines: as §1
Test [5] concerns Saccharomyces cereviseae GS1-36. Description: MIC by agar dilution method. Format: cell-based. Particulars: GS136, Saccharomyces cereviseae GS1-36, agar dilution, 32° C., 20 hours, read-out: MIC. The method in brief:
as §1

For test [6], the system named is Candida tropicalis NRRL-Y-1. Description: MIC by agar dilution method. The class given is cell-based. Particulars: NRRLY1, agar dilution, 32° C., 20 hours, read-out: MIC. In a few lines:
as §1

Test [7] concerns Candida albicans 579a. Description: MIC by agar dilution method. The class given is cell-based. The method in brief:
as §1

Test [8] deals with Candida kefyr ATTC 288. Description: MIC by agar dilution method. Format: cell-based. The settings on record: Kluyveromyces marxianus. In a few lines: as §1
The subject of test [9] is Aspergillus niger ATCC 164. Description: MIC by agar dilution method. Particulars: ATCC164, Aspergillus niger ATCC 164, agar dilution, 32° C., 20 hours, read-out: MIC. The class given is cell-based. In a few lines:
as §1

Test [10] has as its system Torulopsis glabrata ATCC 155. Description: MIC by agar dilution method. The class given is cell-based. The settings on record: Nakaseomyces glabratus, ATCC155, Torulopsis glabrata ATCC 155, agar dilution, 32° C., 20 hours, read-out: MIC. In a few lines:
as §1

The test system of test [11] is Cryptococcus albidus ATCC 341. Description: MIC by agar dilution method. The class given is cell-based. The settings on record: Naganishia albida, ATCC341, Table 6b, 32° C., 20 hours. In a few lines: as §1
Test [12] concerns Candida albicans ATCC 382. Description: MIC by agar dilution method. The settings on record: ATCC382, 20 h. The class given is cell-based. In a few lines:
as §2

Test [13] addresses T1, (1,3)-β-Glucan Synthase (Candida albicans, UniProt O13428).
T1 construct: microsomal enzyme preparation C. albicans CCH 442; endogenous in cells; host or cells: Candida albicans CCH 442, microsomes
Put plainly: In vitro inhibition of (1,3)-β-glucan synthase activity, microsomal enzyme preparation. Format: biochemical. Particulars: C. albicans CCH 442 microsomal enzyme. The protocol: The assay was conducted in a final volume of 100 μL of 2.0 mM UDP-[^14 C]-Glc (0.625 mCi/mmol), 1 mM EDTA, 8% (v/v) glycerol, 20 μM GTPgS, 0.5% Brij-35(v/v) or 0.8% BSA, 80 mM Tris/HCl, pH 7.75, and microsomal enzyme preparation C. albicans CCH 442 (100 μg of protein). A detailed description of this assay is described by Frost, D., Brandt, K. Capobioanco, and Goldman, R., Microbiology 140: 2239-2246 (1994) which is incorporated herein by reference.

Test [14] relates to Candida albicans ATCC 10231. Put plainly: MIC by agar dilution method. The class given is cell-based. The settings on record: ATCC10231; Table 6c; I Candida albicans ATCC 10231; agar dilution; read-out: MIC I. In a few lines: as §1
The subject of test [15] is Candida albicans ATCC 38247. Put plainly: MIC by agar dilution method. The class given is cell-based. The settings on record: ATCC38247; Table 6c; IV Candida albicans ATCC 38247; agar dilution; read-out: MIC IV. The method in brief: as §1
Test [16] concerns Candida albicans ATCC 997. Description: MIC by agar dilution method. The class given is cell-based. The settings on record: ATCC997; Table 6a; Candida albicans ATCC 997; agar dilution, 32° C., 20 hours; read-out: MIC. In a few lines: as §2
The test system of test [17] is Candida albicans ATCC 62376. Description: MIC by agar dilution method. Format: cell-based. The settings on record: ATCC62376; Table 6c; V Candida albicans ATCC 62376; agar dilution; read-out: MIC V. The method in brief:
as §1

The target in test [18] is T2, glucan synthase (Candida albicans, UniProt O13428).
T2 construct: Microsomes isolated from mid-log phase grown yeast; endogenous in cells; host or cells: Candida albicans, mid-log phase yeast cells, microsomes
T2 sequence (O13428 1-1897): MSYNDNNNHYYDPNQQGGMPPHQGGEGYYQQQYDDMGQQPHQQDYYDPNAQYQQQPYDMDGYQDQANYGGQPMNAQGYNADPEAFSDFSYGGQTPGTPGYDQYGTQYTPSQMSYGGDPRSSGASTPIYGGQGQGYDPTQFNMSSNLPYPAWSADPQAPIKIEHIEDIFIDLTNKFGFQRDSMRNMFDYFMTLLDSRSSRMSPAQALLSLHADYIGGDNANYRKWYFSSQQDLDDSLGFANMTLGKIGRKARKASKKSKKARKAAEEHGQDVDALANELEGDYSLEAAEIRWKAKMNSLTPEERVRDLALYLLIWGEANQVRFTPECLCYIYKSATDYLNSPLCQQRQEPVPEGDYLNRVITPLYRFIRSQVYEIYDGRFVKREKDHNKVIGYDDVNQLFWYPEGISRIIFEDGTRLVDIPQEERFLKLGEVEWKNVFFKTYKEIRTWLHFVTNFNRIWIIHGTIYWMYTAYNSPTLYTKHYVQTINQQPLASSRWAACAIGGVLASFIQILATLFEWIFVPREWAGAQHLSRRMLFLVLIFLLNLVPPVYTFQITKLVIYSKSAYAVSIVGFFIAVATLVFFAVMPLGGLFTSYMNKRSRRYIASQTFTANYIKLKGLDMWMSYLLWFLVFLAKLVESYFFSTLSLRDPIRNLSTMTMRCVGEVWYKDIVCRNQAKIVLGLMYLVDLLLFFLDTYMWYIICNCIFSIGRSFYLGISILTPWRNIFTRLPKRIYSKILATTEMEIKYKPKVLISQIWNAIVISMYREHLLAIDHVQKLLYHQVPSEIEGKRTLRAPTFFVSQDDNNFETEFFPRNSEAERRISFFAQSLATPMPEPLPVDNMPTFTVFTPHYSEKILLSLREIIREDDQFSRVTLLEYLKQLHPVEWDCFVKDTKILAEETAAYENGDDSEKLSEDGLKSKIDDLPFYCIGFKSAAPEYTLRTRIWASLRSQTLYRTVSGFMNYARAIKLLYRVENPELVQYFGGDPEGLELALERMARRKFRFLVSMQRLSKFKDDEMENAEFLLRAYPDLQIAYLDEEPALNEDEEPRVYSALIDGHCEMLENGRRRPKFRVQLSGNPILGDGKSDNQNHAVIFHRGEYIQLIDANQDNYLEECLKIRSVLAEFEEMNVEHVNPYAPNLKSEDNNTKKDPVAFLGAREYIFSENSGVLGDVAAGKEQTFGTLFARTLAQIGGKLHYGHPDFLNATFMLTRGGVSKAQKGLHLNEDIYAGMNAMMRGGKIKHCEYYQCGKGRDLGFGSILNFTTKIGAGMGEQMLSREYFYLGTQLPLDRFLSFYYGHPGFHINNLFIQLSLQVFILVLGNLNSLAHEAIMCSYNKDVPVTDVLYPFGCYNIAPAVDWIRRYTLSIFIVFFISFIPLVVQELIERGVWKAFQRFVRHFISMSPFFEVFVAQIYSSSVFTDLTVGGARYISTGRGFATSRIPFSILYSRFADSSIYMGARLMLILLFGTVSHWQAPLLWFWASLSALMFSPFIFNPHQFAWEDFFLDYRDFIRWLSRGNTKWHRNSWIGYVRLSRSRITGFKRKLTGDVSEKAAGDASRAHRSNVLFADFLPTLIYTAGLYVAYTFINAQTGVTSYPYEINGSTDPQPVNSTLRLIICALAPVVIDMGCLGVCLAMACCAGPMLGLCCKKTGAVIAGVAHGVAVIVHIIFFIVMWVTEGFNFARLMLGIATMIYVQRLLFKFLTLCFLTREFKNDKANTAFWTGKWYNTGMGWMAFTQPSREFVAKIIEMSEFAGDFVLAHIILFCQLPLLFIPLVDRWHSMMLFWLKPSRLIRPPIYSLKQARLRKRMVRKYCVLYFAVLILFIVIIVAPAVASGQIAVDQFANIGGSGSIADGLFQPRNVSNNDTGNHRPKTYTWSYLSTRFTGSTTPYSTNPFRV
Description: Microtiter screen for inhibitors of (1,3)-β-glucan formation in cell free extracts. The class given is biochemical. The settings on record: C. albicans microsomes, [14C]UDP-Glc, water-insoluble β-glucan product on filter. The source says: The fungal cell wall serves as a protective barrier and is essential for viability in a hypotonic environment. (1,3)-β-Glucan is a component of the Candida albicans cell wall, and the enzyme that biosynthesizes this polymer, glucan synthase, is not present in higher eukaryotes. (Glucan synthase is an integral plasma membrane protein that catalyzes polymerization of uridine diphosphate-glucose (UDP-Glc) into β-glucan.) Accordingly, glucan synthase represents an ideal target for the development of antifungal agents.
A microtiter screen was established to detect inhibitors of (1 ,3)-β-glucan formation in C. albicans cell free extracts. Microsomes isolated from mid-log phase grown yeast were incubated with [^14 C]UDP-Glc, effectors and test compound (fusacandin A, Example 4). The formation of the water-insoluble β-glucan product was measured on a filter after removing the substrate with water washes.

Test [19] has as its system Streptococcus bovis A-5169. Description: MIC by agar dilution method. The class given is cell-based. Particulars: Streptococcus equinus, A5169; Table 6a; Streptococcus bovis A-5169; agar dilution, 32° C., 20 hours; read-out: MIC.
Test [20] relates to Streptococcus pyrogenes EES61. Put plainly: MIC by agar dilution method. Particulars: Table 6a; Streptococcus pyrogenes EES61; agar dilution, 32° C., 20 hours; read-out: MIC. The class given is cell-based.
For test [21], the system named is Staphylococcus aureus ATTC 6538p. Put plainly: MIC by agar dilution method. The settings on record: ATTC6538P; Table 6a; Staphylococcus aureus ATTC 6538p; agar dilution, 32° C., 20 hours; read-out: MIC. Format: cell-based.
Test [22] concerns Nocardia asteroides ATTC 9970. Description: MIC by agar dilution method. The class given is cell-based. Particulars: ATTC9970; Table 6a; Nocardia asteroides ATTC 9970; agar dilution, 32° C., 20 hours; read-out: MIC.
The nature of test [23]: Minimum inhibitory concentration (MIC) stated with the glucan synthase screen. Format: cell-based. The settings on record: organism not given.

≈ marks a conversion by molar mass, not a printed value. Where two headings read alike, the source gives them in different places.

The values that follow come from patent US5773421A, “Antifungal fusacandins” (Abbott Laboratories, priority 1995, dated 1998).

T1 sequence (O13428 1-1897): as above

In general, MIC refers to the lowest concentration that inhibits growth of the organism. Take `C[C@@H]1[C@H](O)[C@@H](C)/C=C/C=C/C=C/C=C/C=C/C=C/C=C/[C@H](O[C@@H]2O[C@H](C)[C@@H](O)[C@H](N)[C@@H]2O)C[C@@H]2O[C@](O)(C[C@@H](O)C[C@@H](O)[C@H](O)CC[C@@H](O)C[C@@H](O)CC(=O)O[C@H]1C)C[C@H](O)[C@H]2C(=O)O` [Amphotericin B, amphotericin B, reference compound]: the minimum inhibitory concentration (MIC) was determined as 0.24 µg/mL (≈ 0.26 µM) in test [1]; 1.56 µg/mL (≈ 1.69 µM) in test [2] (Table 6b); 1.56 µg/mL (≈ 1.69 µM) in test [3]; 1.56 µg/mL (≈ 1.69 µM) in test [4] (Table 6b, Candida albicans CCH 442, 32° C., 20 hours, read-out: MIC); 1.56 µg/mL (≈ 1.69 µM) in test [5] (Table 6b); 1.56 µg/mL (≈ 1.69 µM) in test [6] (Table 6b, Candida tropicalis NRRL Y-1). In addition, the minimal inhibitory concentration (MIC) was 1.56 µg/mL (≈ 1.69 µM) in test [7] (Candida albicans, 579A, 20 h); 1.56 µg/mL (≈ 1.69 µM) in [8] (ATCC288, 20 h); 1.56 µg/mL (≈ 1.69 µM) in test [9] (Table 6b); 1.56 µg/mL (≈ 1.69 µM) in test [10] (Table 6b); 3.12 µg/mL (≈ 3.38 µM) in test [11]; 50 µg/mL (≈ 54.1 µM) in test [12].
Broadly, the IC50 is the concentration that inhibits the measured activity by half. For the compound `CCCCCC=CC=CC(=O)OCC1OC(OC2C(CO)OC(c3c(O)cc(O)cc3CO)C(O)C2OC(=O)C=CC=CCC(O)C=CC=CCCCCC)C(OC2OC(CO)C(O)C(O)C2O)C(O)C1O` (stereo not drawn) [Example 4, fusacandin A], the MIC in test [1] worked out at 0.48 µg/mL (≈ 0.469 µM); in test [2] (Table 6a), 6.25 µg/mL (≈ 6.11 µM); in [14], 1.56 µg/mL (≈ 1.52 µM); in test [4] (Table 6a, Candida albicans CCH 442, 32° C., 20 hours, read-out: MIC), 6.26 µg/mL (≈ 6.12 µM); in test [4] (Table 6c, 3rd value column (head printed II), III Candida albicans CCH 442, read-out: MIC II), 0.78 µg/mL (≈ 0.762 µM); in test [15], 0.78 µg/mL (≈ 0.762 µM). The MIC in test [5] (Table 6a) came out at 3.12 µg/mL (≈ 3.05 µM); in test [6] (Table 6a, Candida tropicalis NRRL-Y-1), 6.25 µg/mL (≈ 6.11 µM); in test [7] (Table 6c, II Candida albicans 579a, agar dilution, read-out: MIC II), 0.78 µg/mL (≈ 0.762 µM); in test [16], 12.5 µg/mL (≈ 12.2 µM); in test [8] (ATTC288, Table 6a, Candida kefyr ATTC 288, agar dilution, 32° C., 20 hours, read-out: MIC), 6.25 µg/mL (≈ 6.11 µM); in [9] (Table 6a), 6.25 µg/mL (≈ 6.11 µM). Besides, the MIC was 1.56 µg/mL (≈ 1.52 µM) in test [17]; 3.12 µg/mL (≈ 3.05 µM) in test [10] (Table 6a); 12.5 µg/mL (≈ 12.2 µM) in test [19]; 6.25 µg/mL (≈ 6.11 µM) in test [20]; 50 µg/mL (≈ 48.9 µM) in [21]; 12.5 µg/mL (≈ 12.2 µM) in [22]. In addition, the MIC in test [23] stood at 0.5 µg/mL (≈ 0.489 µM). Moreover, the IC50 in [13] (0.5% Brij-35, read-out: IC50 With Brij-35 (converted)) is 6.84 µM; in test [13] (0.8% BSA, read-out: IC50 With BSA (converted)), 111 µM; in test [18] (read-out: IC50 (converted)), 20 µM.
As for `CCC(O)/C=C/C=C/C=C/C(=O)OC[C@H]1O[C@@H](O[C@H]2[C@H](OC(=O)/C=C/C=C/CC(O)/C(C)=C/C=C/CCC(C)CC)[C@@H](O)[C@@]3(OCc4cc(O)cc(O)c43)O[C@@H]2CO)[C@H](O)[C@@H](O)[C@H]1O` (stereo partly drawn) [Papulacandin B, papulacandin B, reference compound], in test [1], the “MIC No sorbitol” value amounted to 0.48 µg/mL (≈ 0.533 µM). In addition, the “IC50 With Brij-35” value in test [13] (0.5% Brij-35) amounted to 0.8 µg/mL (≈ 0.888 µM). The “IC50 With BSA” value in test [13] (0.8% BSA) was determined as 16.3 µg/mL (≈ 18.1 µM). This compound also displayed a 50% inhibitory concentration (IC50) in [18] of 3.6 µg/mL. Also, in test [23], the “minimum inhibitory concentration (MIC)” value turned out to be 1.0 µg/mL (≈ 1.11 µM).
